According to a melting point compilation (Tetko et al.; mined from patent text by program, amines drawn as free bases though some values may be those of a salt):

Compound | melting point
N#Cc1cc(N)n(-c2c(Cl)cc(C(F)(F)F)cc2Cl)n1 | 117 to 118 °C
C[C@H]1C(=O)Nc2ccc(Cl)cc2N1C(=O)Oc1ccc(Cl)cc1 | 185 to 188 °C
NC(=O)c1cccc(C=CC(=O)O)c1 | > 260 °C
C=CCN(CC=C)Cc1noc(-c2ncn3c2[C@@H]2CCN2C(=O)c2ccccc2-3)n1 | 147 to 150 °C
O=C(CC12CC3CC(CC(C3)C1)C2)Nc1ccc2cn[nH]c2c1 | 245 °C
C=CCn1cc(-c2ccccc2)c(=O)c(-c2ccccc2)c1 | 174 °C
COC(=O)C1(C(=O)OC)CCn2c(C(=O)c3ccccc3)cc(Br)c21 | 109 to 110 °C
CCOCc1cc(OC)c(-c2ccc(C[C@H](NC(=O)c3c(F)cccc3Cl)C(=O)O)cc2)c(OC)c1 | 182 to 184 °C
ClCCCn1ncc2cc(OCc3ccccc3)ccc21 | 65 to 66 °C
COc1cccc2c(CN3CC=C(CCc4ccccc4)CC3)c[nH]c12 | 131 to 133 °C
COc1cc2c(cc1OC)C(=O)C(=O)N(CCCN(C)CCCSc1cc(Br)c(N)c(Br)c1)CC2 | 118 to 125 °C
CC(CC(Br)CO)C1CCC2C(O)CCCC12C (configuration not stated) | 153 to 154 °C
COc1ccc(C(=O)C2CCN(C3CN(C(=O)c4ccccc4)CCC3O)CC2)cc1 (configuration not stated) | 114 to 115 °C
COCCCOc1cc(C[C@@H](CBr)C(C)C)ccc1OC | 52 to 53 °C
CCCCOc1cc(/C=C(\OCC)C(=O)O)ccc1OCCc1ccc(OS(=O)(=O)CCCC)cc1 | 96 °C
CCCCCCCCCCOc1cc(OCCCCCCc2cccc(OCc3ccccc3)c2OCc2ccccc2)cc(C(=O)OC)c1 | 45 to 46 °C
COc1ccc(C2=NN(C3CCN(C(=O)c4cccnc4)CC3)C(=O)CC2)cc1OC | 162 to 164 °C
COc1ccc(C2=CC(C3CCN(c4ncnc5c4cnn5C)CC3)C(=O)C3CC=CCC23)cc1OC (configuration not stated) | 193 to 194 °C
O=C(O)Cc1ccc(Oc2ccc3c(c2)S(=O)(=O)NC2CCCN32)cc1 (configuration not stated) | 166 to 169 °C
NC(=O)c1ccc(NC2CCCN(Cc3ccccc3)C2)cc1 (configuration not stated) | 158 to 160 °C
CN1CC=C(c2c[nH]c3ccc(NC(=O)c4ccc(F)cc4Cl)cc23)CC1 | 212 to 222 °C
Nc1cccc(OCCN2CCc3ccccc3C2)c1N | 76 to 77 °C
COc1ccc(O)c2c1C(C)(C)CCC2(C)C | 127 °C
CCCc1c(OCCCCCC(=O)NCCCCc2ccccn2)ccc(C(C)=O)c1O | 63 to 66 °C
c1ccc(-c2nc3ccc(NCCCN4CCC(OC(c5ccccc5)c5ccccc5)CC4)nn3n2)cc1 | 170 to 172 °C
OCC1CCC(N2CCC(=C3c4ccc(F)cc4Sc4ccc(C(F)(F)F)cc43)CC2)CC1 (configuration not stated) | 208 to 211 °C
CCOC(=O)C1(C(N)=O)OCCO1 | 99 to 100 °C

Results, then the compound that gave them:

melting point | Compound
80 °C | CC1(C)SC(=S)N(c2ccccn2)C1O (configuration not stated)
264 °C | COc1ccc(N2CCN(n3c(C)n[nH]c3=O)CC2)cc1
174 to 175 °C | CN(C(=S)c1ccc2nonc2c1)C1CCOCC1
277 to 279 °C | O=C(O)c1cc(F)c2cccnc2c1O
222 °C | Cn1nc(Sc2ccc(C(=O)O)c(Cl)c2)n(C)c1=O
110 to 112 °C | CCOC(=O)c1ccc(-c2coc(-c3ccccc3)n2)cc1
152 to 154 °C | Cc1nc2ccc(Cl)cn2c(=O)c1CCN1CCN(c2cccc(Cl)c2)CC1
161 °C | COc1cc(NC(=O)OC(C)(C)C)c(N)cc1-c1ccccc1F
107 to 110 °C | COC(=O)C1=C(C)Nc2ccccc2SC1c1ccc(OC)cc1 (configuration not stated)
89 to 90 °C | CS(=O)(=O)c1ccc(OCCO)cc1
203 to 204 °C | CCc1cnc2c(NC(=O)c3c(Cl)cccc3Cl)cccc2c1CC(C)(C)O
185 to 187 °C | COc1c(C(N)=O)nnn1Cc1ccccc1Cl
> 300 °C | O=C(O)c1ccc(-c2n[nH]c(-c3ccccc3)n2)cc1
134 to 139 °C | CC(C)n1ccc(-c2ccc([C@H](C)N3CC[C@](CC(C)(C)O)(c4ccccc4)OC3=O)cc2)cc1=O
175 to 177 °C | COc1ccc2c3ccc(OC)cc3n(CCNC(=O)CS(C)(=O)=O)c2c1
103 to 105 °C | COc1cc(Nc2ncc([N+](=O)[O-])c(-c3ccccc3)n2)cc(OC)c1OC
260 to 262 °C | CCOC(=O)Nc1ccc(-c2c[nH]c(=O)cn2)cc1
146 to 150 °C | Cc1ccc(Cn2nc(CCCc3ccc(OC(C)(C)C(=O)O)cc3)[nH]c2=O)cc1C
104 to 105 °C | Cc1nc(C)c(C(C)(O)c2ccoc2)s1 (configuration not stated)
223 to 225 °C | Cc1ncnc2c(NC(=O)c3c(Cl)cccc3Cl)cccc12
